# Experimental data published in PMC10573752, “New Benzamides as Multi-Targeted Compounds: A Study on Synthesis, AChE and BACE1 Inhibitory Activity and Molecular Docking” (International Journal of Molecular Sciences, 2023).
# Like-named read-outs stand apart in the source and are kept apart here.
# Legend:
# [1] = biological target: T1, AChE from Electrophorus electricus (electric eel) (Electrophorus electricus, UniProt O42275); assay: biochemical; details: mean ± SD of three independent experiments
# T1 construct: purchased Sigma-Aldrich C3389
# T1 sequence (O42275 24-633): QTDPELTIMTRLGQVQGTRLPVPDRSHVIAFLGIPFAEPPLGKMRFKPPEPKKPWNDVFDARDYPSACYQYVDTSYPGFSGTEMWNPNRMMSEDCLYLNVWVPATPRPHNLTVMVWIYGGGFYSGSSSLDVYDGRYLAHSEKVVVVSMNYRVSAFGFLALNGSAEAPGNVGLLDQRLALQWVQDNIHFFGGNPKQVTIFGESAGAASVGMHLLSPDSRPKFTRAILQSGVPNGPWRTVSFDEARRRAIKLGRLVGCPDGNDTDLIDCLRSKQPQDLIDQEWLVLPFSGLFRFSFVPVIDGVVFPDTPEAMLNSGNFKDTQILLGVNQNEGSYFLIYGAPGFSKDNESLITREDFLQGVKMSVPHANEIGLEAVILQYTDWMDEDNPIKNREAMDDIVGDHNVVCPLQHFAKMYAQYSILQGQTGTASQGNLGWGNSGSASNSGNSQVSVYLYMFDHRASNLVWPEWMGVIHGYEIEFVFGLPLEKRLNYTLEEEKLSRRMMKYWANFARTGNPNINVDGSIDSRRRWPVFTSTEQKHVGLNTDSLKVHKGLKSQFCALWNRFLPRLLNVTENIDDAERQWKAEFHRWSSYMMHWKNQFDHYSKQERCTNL
# BACE1 [2] = biological target: T2, BACE1 (Homo sapiens, UniProt P56817); assay: In vitro β-secretase (BACE1) activity assay kit (fluorescence); type: biochemical, equine
# T2 construct: purchased Sigma-Aldrich CS0010
# T2 sequence (P56817 46-457 limits assumed): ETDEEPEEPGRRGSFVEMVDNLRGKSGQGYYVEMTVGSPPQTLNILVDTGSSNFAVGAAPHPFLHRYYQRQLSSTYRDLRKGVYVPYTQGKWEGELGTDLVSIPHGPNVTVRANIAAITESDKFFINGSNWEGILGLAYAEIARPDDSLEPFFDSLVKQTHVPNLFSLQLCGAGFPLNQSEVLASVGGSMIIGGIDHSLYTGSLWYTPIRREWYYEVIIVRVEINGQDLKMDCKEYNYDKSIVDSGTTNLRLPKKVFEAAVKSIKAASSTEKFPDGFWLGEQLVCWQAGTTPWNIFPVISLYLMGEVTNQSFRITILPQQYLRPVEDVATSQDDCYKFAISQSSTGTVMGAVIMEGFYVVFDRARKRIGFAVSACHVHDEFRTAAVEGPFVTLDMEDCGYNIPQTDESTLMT
# human AChE = details: cited from earlier work
# BACE1 [3] = details: cited from earlier work
# hBuChE = biological target: hBuChE; set-up: method as in PMID 23041347; details: cited from earlier work
# AChE = details: cited from earlier work
# BuChE = details: cited from earlier work
# BACE-1 = details: cited from earlier work
Compound,IC50 [1] [µM],IC50 (BACE1 [2]) [µM],also measured
"COc1cc(C(=O)Nc2ccc(NC(=O)c3cc(OC)c(OC)c(OC)c3)cc2)cc(OC)c1OC [JW5, N,N′-(1,4-phenylene)bis(3,4,5-trimethoxybenzamide)]",0.068 ± 0.058,9.29 ± 3.02,
CC(=O)c1ccccc1NC(=O)c1ccc(OCCCCC[n+]2ccccc2)cc1 [compound XI],,,Ki (human AChE; read-out: hAChE Ki): 0.081 µM; IC50 (BACE1 [3]): 0.31 µM; Ki (hBuChE): 0.093 µM
"COc1cc(C(=O)Nc2cccc(NC(=O)c3cc(OC)c(OC)c(OC)c3)c2)cc(OC)c1OC [JW1, N,N′-(1,3-phenylene)bis(3,4,5-trimethoxybenzamide)]",0.77 ± 0.018,54.4 ± 1.3,
COc1ccc(C(=O)N(Cc2ccc(Cl)cc2)c2cccc(Br)c2)cc1OC [compound I],,,IC50 (AChE; read-out: AChE IC50): 1.57 µM; IC50 (BuChE; read-out: BuChE IC50): 2.85 µM
"COc1cccc(C(=O)Nc2ccc(NC(=O)c3cccc(OC)c3)cc2)c1 [JW8, N,N′-(1,4-phenylene)bis(3-methoxybenzamide)]",0.056 ± 0.043,9.01 ± 0.28,
"COc1cccc(C(=O)Nc2cccc(NC(=O)c3cccc(OC)c3)c2)c1 [JW4, N,N′-(1,3-phenylene)bis(3-methoxybenzamide)]",1.2 ± 0.013,81.4 ± 4.11,
CCN(CC)Cc1ccccc1CNC(=O)c1cc(C)cc(CC(=O)c2ccc(F)cc2)c1 [IV],,,IC50 (BuChE; read-out: BChE IC50): 3.9e-05 µM
O=C(NCCCCCCCCCCNc1c2c(nc3ccccc13)CCCC2)c1cc(=O)c2cc(O)ccc2o1 [Molecule VIII],,,"IC50 (human AChE; human AChE, read-out: IC50 for AChE): 0.008 µM; IC50 (BACE-1; read-out: IC50 for BACE-1): 2.8 µM"
COc1ccc(C(=O)Nc2nc(CN(C)Cc3ccccc3)cs2)cc1 [substance II],,,IC50 (AChE; read-out: AChE IC50): 1.47 µM; IC50 (BuChE; read-out: BuChE IC50): 11.4 µM
O=C(NCc1cc(Cl)cc(Cl)c1)c1cc(Br)ccc1O [compound VI],,,IC50 (AChE; read-out: inhibitory potency of AChE activity): 33.1 ± 0.47 µM
"COc1ccc(C(=O)Nc2ccc(NC(=O)c3ccc(OC)c(OC)c3)cc2)cc1OC [JW7, N,N′-(1,4-phenylene)bis(3,4-dimethoxybenzamide)]",0.07 ± 0.003,12.8 ± 0.23,
"COc1cc(C(=O)Nc2cccc([N+](=O)[O-])c2)cc(OC)c1OC [MB1, 3,4,5-trimethoxy-N-(3-nitrophenyl)benzamide]",0.67 ± 0.008,40.5 ± 2.2,
"COc1cc(NC(=O)c2cc(OC)c(OC)c(OC)c2)cc(OC)c1OC [MB3, 3,4,5-trimethoxy-N-(3,4,5-trimethoxyphenyl)benzamide]",0.11 ± 0.078,20.2 ± 5.13,
C[C@@H](NC(=O)c1cccc(C(=O)N[C@@H](c2ccccc2)[C@H](O)CNCCC2CCN(Cc3ccccc3)CC2)c1)c1ccccc1 [Derivative VII],,,IC50 (AChE; read-out: AChE IC50): 1.83 µM; IC50 (BACE1 [3]): 0.57 µM
OC(CNCc1cccc(COc2ccccc2)c1)Cn1cc(Br)c2cc(Br)ccc21 (centres unmarked) [compound IX],,,IC50 (AChE; read-out: AChE IC50): 9.1 µM; IC50 (BACE1 [3]; read-out: BACE-1 IC50): 2.5 µM
"COc1cc(OC)cc(C(=O)Nc2ccc(NC(=O)c3cc(OC)cc(OC)c3)cc2)c1 [JW6, N,N′-(1,4-phenylene)bis(3,5-dimethoxybenzamide)]",0.19 ± 0.033,16.7 ± 0.25,
"COc1ccc(C(=O)Nc2cccc(NC(=O)c3ccc(OC)c(OC)c3)c2)cc1OC [JW3, N,N′-(1,3-phenylene)bis(3,4-dimethoxybenzamide)]",0.41 ± 0.028,40.2 ± 8.12,
"COc1cc(OC)cc(C(=O)Nc2cccc(NC(=O)c3cc(OC)cc(OC)c3)c2)c1 [JW2, N,N′-(1,3-phenylene)bis(3,5-dimethoxybenzamide)]",2.57 ± 0.063,74 ± 1.61,
"COc1cc(CNC(=O)c2cc(OC)c(OC)c(OC)c2)cc(OC)c1OC [MB4, 3,4,5-trimethoxy-N-(3,4,5-trimethoxybenzyl)benzamide]",1.17 ± 0.015,87.7 ± 6.22,
CN(C)CCOc1ccc(NC(=O)c2ccccn2)cc1 [Compound V],,,IC50 (AChE; read-out: AChE inhibitory activity IC50): 2.49 ± 0.19 µM
CCN(CC)Cc1ccccc1CNC(=O)c1cccc(CC(=O)c2ccc(F)cc2)c1 [III],,,IC50 (BuChE; read-out: BChE IC50): 8e-05 µM
COc1ccc(CNC(=O)C2CCN(C(=O)c3ccccc3)CC2)cc1OC [compound X],,,"IC50 (human AChE; in humans, read-out: AChE IC50): 0.00411 µM; IC50 (BACE-1; in humans, read-out: BACE-1 IC50): 0.0183 µM"
